Reference: publication PMC4978154, “Phase I metabolites of mephedrone display biological activity as substrates at monoamine transporters” (British Journal of Pharmacology, 2016)
Like-named read-outs stand apart in the source and are kept apart here.

Experiments:
hSERT = molecular target: T1, hSERT (Homo sapiens, UniProt P31645); assay: Transporter uptake inhibition in HEK293 cells expressing hSERT; format: cell-based; details: [3H]-5-HT uptake; for IC50: mean (95% confidence interval)
T1 construct: yellow fluorescent protein (YFP); expressed in transfected cells
T1 sequence (P31645 whole entry): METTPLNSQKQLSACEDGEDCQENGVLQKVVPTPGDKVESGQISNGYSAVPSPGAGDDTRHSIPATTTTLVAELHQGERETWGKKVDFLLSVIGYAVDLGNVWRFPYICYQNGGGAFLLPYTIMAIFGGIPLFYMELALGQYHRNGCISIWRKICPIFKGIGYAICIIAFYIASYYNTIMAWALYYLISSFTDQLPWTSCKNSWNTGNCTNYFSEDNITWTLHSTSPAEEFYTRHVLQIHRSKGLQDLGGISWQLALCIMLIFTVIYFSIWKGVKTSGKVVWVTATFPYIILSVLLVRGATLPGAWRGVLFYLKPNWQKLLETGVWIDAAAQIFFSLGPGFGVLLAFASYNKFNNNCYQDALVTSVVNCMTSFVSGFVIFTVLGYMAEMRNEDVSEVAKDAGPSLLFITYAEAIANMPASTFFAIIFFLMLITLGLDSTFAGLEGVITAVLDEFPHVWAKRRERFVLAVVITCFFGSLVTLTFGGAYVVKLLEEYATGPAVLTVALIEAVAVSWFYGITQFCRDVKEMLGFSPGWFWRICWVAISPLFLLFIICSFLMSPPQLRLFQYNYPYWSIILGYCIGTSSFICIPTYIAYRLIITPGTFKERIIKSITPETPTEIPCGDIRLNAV
Description: The generation of HEK293 cells stably expressing the human isoforms of DAT (hDAT) and NET (hNET) was carried out as described previously (Scholze et al., 2002). For SERT, the human isoform (hSERT) was cloned in frame with yellow fluorescent protein (Schmid et al., 2001). The generation of a stable cell line was performed as described by Hilber and colleagues (Hilber et al., 2005). HEK293 cells were maintained in humidified atmosphere (5% CO2, 37°C) in DMEM, supplemented with 10% heat‐inactivated FBS and penicillin (100 u 100 mL^−1) and streptomycin (100 μg 100 mL^−1). Selection pressure was maintained by adding geneticin (50 μg·mL^−1) to the cell culture media.
Uptake experiments were conducted as described previously (Sitte et al., 2001) with minor modifications. In brief, HEK293 cells expressing hDAT, hNET or hSERT were seeded into poly‐D‐lysine (PDL) coated 96‐well plates at a density of 40 000 cells per well. The next day, DMEM was aspirated and replaced with Krebs HEPES buffer (KHB, 25 mM HEPES, 120 mM NaCl, 5 mM KCl, 1.2 mM CaCl2, and 1.2 mM MgSO4, 5 mM D‐glucose, pH adjusted to 7.3 with NaOH) (200 μL per well), and cells were pre‐incubated with various concentrations of mephedrone or its metabolites for 5 min (50 μL per well). Subsequently, 0.1 μM of [^3H]‐5‐HT or 0.02 μM of [^3H]‐MPP^+ were added, and uptake was terminated after 1 (hSERT) or 3 min (hDAT, hNET) by washing the cells with 200 μL of ice‐cold KHB. Cells were lysed with 1% SDS, and tritium uptake was determined by scintillation counting. Nonspecific uptake was determined in the presence of 10 μM paroxetine (hSERT) or 10 μM mazindol (hDAT and hNET).
(§1) Calculations were performed using Microsoft Excel® 2010 (Microsoft Corporation, Redmond, WA, USA) and GRAPHPAD PRISM 5.0. (GraphPad Software Inc., La Jolla, CA, USA). IC50 values for uptake inhibition and EC50 values for release were determined by nonlinear regression fits. Release data expressed as AUC were analysed by one‐way ANOVA followed by Bonferroni's multiple comparison test. Microdialysis and locomotor data were analysed by two‐way ANOVA (drug treatment × time) followed by Bonferroni's test. The effect of monensin treatment on basal efflux of tritiated substrate was analysed with the Mann–Whitney test. P values less than 0.05 (i.e. P < 0.05) were considered significant. The data and statistical analysis comply with the recommendations on experimental design and analysis in pharmacology (Curtis et al., 2015).

NET = molecular target: T2, NET (Rattus norvegicus, UniProt Q63380); assay: Transporter release assay in rat brain synaptosomes, NET; format: biochemical; details: [3H]-MPP+, mean (95% confidence interval)
T2 construct: a native tissue preparation that contains plasma membrane transporters in situ; from tissue; host or cells: rat whole brain minus striatum and cerebellum, synaptosomes
T2 sequence (Q63380 1-617): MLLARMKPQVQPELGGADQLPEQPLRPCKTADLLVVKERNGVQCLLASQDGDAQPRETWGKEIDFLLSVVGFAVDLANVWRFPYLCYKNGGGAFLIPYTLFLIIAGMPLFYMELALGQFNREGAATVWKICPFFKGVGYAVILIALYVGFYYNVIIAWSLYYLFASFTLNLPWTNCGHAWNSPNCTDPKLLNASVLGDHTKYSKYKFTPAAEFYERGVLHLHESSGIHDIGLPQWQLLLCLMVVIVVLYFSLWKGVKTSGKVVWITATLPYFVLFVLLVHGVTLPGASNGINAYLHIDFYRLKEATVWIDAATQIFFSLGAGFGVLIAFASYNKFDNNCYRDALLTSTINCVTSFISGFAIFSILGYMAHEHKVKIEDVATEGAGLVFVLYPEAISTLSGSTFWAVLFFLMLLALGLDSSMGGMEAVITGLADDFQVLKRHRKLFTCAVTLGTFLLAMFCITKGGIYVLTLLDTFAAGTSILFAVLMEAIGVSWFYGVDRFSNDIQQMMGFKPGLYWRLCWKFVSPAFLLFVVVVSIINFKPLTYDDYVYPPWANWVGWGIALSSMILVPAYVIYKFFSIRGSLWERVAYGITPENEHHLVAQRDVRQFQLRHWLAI
Description: The ability of mephedrone and its metabolites to evoke release via DAT, NET and SERT was determined in rat brain synaptosomes as previously described (Baumann et al., 2012). Rats were killed with CO2, decapitated, and brains were rapidly removed and dissected on ice. Synaptosomes were prepared from striatum for DAT assays, whereas synaptosomes were prepared from whole brain minus striatum and cerebellum for the NET and SERT assays. [^3H]‐MPP^+ (9 nM) was used as the radiolabelled substrate for DAT and NET, whereas [^3H]‐5‐HT (5 nM) was used as the radiolabelled substrate for SERT. All buffers used in the release assays contained 1 μM reserpine to block vesicular uptake of substrates. The selectivity of assays was optimized for a single transporter by including unlabelled compounds [nomifensine and 1‐(2‐diphenylmethoxyethyl)‐4‐(3‐phenylpropyl)piperazine dihydrochloride (GBR12935) for SERT; GBR12935 and citalopram for NET; citalopram and desipramine for DAT] to prevent the uptake of [^3H]‐MPP^+ or [^3H]‐5‐HT by competing transporters. Synaptosomes were preloaded with radiolabelled substrate in Krebs‐phosphate buffer, which consisted of 126 mM NaCl, 2.4 mM KCl, 0.5 mM KH2PO4, 1.1 mM CaCl2, 0.83 mM MgCl2, 0.5 mM Na2SO4, 11.1 mM glucose, 13.7 mM Na2HPO4, 1 mg·mL^−1 ascorbic acid and 50 μM pargyline (pH = 7.4) for 1 h (steady state). […] Assays were terminated by vacuum filtration, and retained radioactivity was quantified by liquid scintillation counting.
as §1, with “(GraphPad Software Inc., La Jolla, CA, USA).” left out, “P values less than 0.05 (i.e. P < 0.05) were considered significant. The data and statistical analysis comply with the recommendations on experimental design and analysis in pharmacology (Curtis et al., 2015).” left out

[1] = test system: extracellular 5-HT in rat nucleus accumbens; assay: Microdialysis in rat nucleus accumbens, dialysate 5-HT; format: in vivo; details: for increase of dialysate 5-HT above baseline: rat nucleus accumbens
Description: In vivo microdialysis procedures were carried out as previously described with minor modifications (Baumann et al., 2012). Briefly, male rats anaesthetized with sodium pentobarbital (60 mg·kg^−1, i.p.) received surgically implanted jugular catheters, and intracerebral guide cannulae aimed at the nucleus accumbens (AP +1.6 mm, ML −1.7 mm relative to bregma; −6.2 mm relative to dura) (Paxinos and Watson, 2007). After a 7–10 day recovery, each rat was placed into a chamber equipped with photobeams for the detection of motor parameters (TruScan, Harvard Apparatus, Holliston, MA, USA) and allowed to acclimatize overnight. Food and water were available ad libitum during the acclimatization period. On the following morning, catheters were attached to PE 50 extension tubes, and 0.5 × 2 mm microdialysis probes (CMA/12, Harvard Apparatus, Holliston, MA, USA) were inserted into the guide cannulae. Ringers' solution (150 mM NaCl, 2.8 mM KCl and 2.0 mM CaCl2) was perfused through the probes at 0.6 μL·min^−1 for 3 h. To commence experiments, dialysate samples ([…]) were collected at 20 min intervals, and drug or saline treatments were given after three baseline samples were obtained. Rats received two sequential i.v. injections of mephedrone or its metabolites, with 1 mg·kg^−1 administered at time zero, followed by 3 mg·kg^−1 60 min later. Saline was administered using the same schedule in a separate group of rats. Dialysate concentrations of dopamine and 5‐HT were quantified using HPLC coupled to electrochemical detection (Baumann et al., 2012). Chromatographic data were exported to an Empower software system (Waters, Inc., Milford, MA, USA) for peak identification, integration and analysis.
Correct probe placements were assessed after the microdialysis experiments. Rats were killed by CO2 narcosis then decapitated. Brains were quickly removed and immersion fixed in 10% paraformaldehyde for 1 week. Subsequently, brains were sectioned on a cryostat, and the location of each probe tip was verified by inspection of photographic images of the brain taken with a digital camera using the macro lens setting.
as §1

[2] = forensic traffic case, ref Pedersen et al., 2013, cited from earlier work; for blood concentration, first case: parent drug:metabolite 28:2; for blood concentration, second case: parent drug:metabolite 29:9
[3] = IC50 on uptake mediated by hSERT
[4] = EC50 on transporter mediated efflux, NET
[5] = 3 mg·kg−1 i.v. (60 min after 1 mg·kg−1)

Structure (SMILES)	efficacy of uptake inhibition at hSERT (hSERT)	IC50 (hSERT; read-out: IC50 on uptake mediated by hSERT)	EC50 (NET; read-out: EC50 on transporter mediated efflux, NET)	effect on extracellular neurotransmitters in the brain (5-HT) ([1]; systemic administration, 1 and 3 mg·kg−1 i.v., rat)	blood concentration, first case [2]	blood concentration, second case [2]	IC50 (hSERT; [3])	EC50 (NET; [4])	increase of dialysate 5-HT above baseline ([1]; 1 mg·kg−1 i.v.)	increase of dialysate 5-HT above baseline [1, 5]
CNC(C)C(=O)c1ccc(CO)cc1.Cl (stereo not drawn) [4‐OH‐mephedrone, 1‐(4‐(hydroxymethyl)phenyl)‐2‐(methylamino)propan‐1‐one hydrochloride]	fully efficacious inhibitors of uptake	73.5 µM	0.15 µM	no significant effect	2 µg/kg	9 µg/kg				
CNC(C)C(=O)c1ccc(C)cc1.Cl (stereo not drawn) [Mephedrone, 2‐Methylamino‐1‐(p‐tolyl)propan‐1‐one hydrochloride]	fully efficacious inhibitors of uptake				28 µg/kg	29 µg/kg	7.83 µM	0.09 µM	15 fold	25 fold
Cc1ccc(C(=O)C(C)N)cc1.Cl (stereo not drawn) [Nor‐mephedrone, 2‐amino‐1‐(p‐tolyl)propan‐1‐one hydrochloride]	fully efficacious inhibitors of uptake						10.6 µM	0.1 µM	15 fold	25 fold
